Assay results as given in ChEMBL document CHEMBL1130478, “Mono and bis double ester prodrugs of novel aminomethyl-THF 1-methylcarbapenems” (Bioorg Med Chem Lett, 1997).
One block for each molecule: values may come before it.

Assays:
Type in all cases: functional
Mus musculus [1] = assay: Antibacterial activity against Escherichia coli (311) infection in mice after single oral dose, activity expressed as ED50
Mus musculus [2] = assay: Antibacterial activity against Escherichia coli (311) infection in mice after single subcutaneous dose, activity expressed as ED50; conditions: sc
[3] = tested on: Acinetobacter calcoaceticus; assay: In vitro antibacterial activity against Acinetobacter calcoaceticus (GC 756) following preincubation in mouse serum
Citrobacter freundii [4] = assay: In vitro antibacterial activity against C. freundii(GC 2211) following pre-incubation in mouse serum
Citrobacter freundii [5] = assay: In vitro antibacterial activity against C. freundii(GC 2211) without preincubation in mouse serum
Enterococcus faecalis [6] = assay: In vitro antibacterial activity against E. faecalis(GC 842) without pre-incubation in mouse serum
Enterococcus faecalis [7] = assay: In vitro antibacterial activity against E. faecalis(GC 842) following pre-incubation in mouse serum
Enterobacter cloacae [8] = assay: In vitro antibacterial activity against E. cloacae(GC 2209) following preincubation in mouse serum
Enterobacter cloacae [9] = assay: In vitro antibacterial activity against E. cloacae(GC 2209) without pre-incubation in mouse serum
Enterococcus faecium [10] = assay: In vitro for antibacterial activity against E. faecium(GC 1182) without pre-incubation in mouse serum
Escherichia coli [11] = assay: In vitro antibacterial activity expressed as MIC against Escherichia coli (ATCC 25922) following pre-incubation in mouse serum
Escherichia coli [12] = assay: In vitro antibacterial activity expressed as MIC against Escherichia coli (ATCC 25922) without pre-incubation in mouse serum
Escherichia coli [13] = assay: In vitro antibacterial activity expressed as MIC against E. coli(GC 1792) following pre-incubation in mouse serum
Escherichia coli [14] = assay: In vitro antibacterial activity expressed as MIC against E. coli(GC 1792) without pre-incubation in mouse serum
Escherichia coli [15] = assay: In vitro antibacterial activity expressed as MIC against E. coli(GC 2205) following pre-incubation in mouse serum
Escherichia coli [16] = assay: In vitro antibacterial activity expressed as MIC against E. coli(GC 2205) without pre-incubation in mouse serum
Morganella morganii [17] = assay: In vitro antibacterial activity against M. morganii(GC 2213) following pre-incubation in mouse serum
Morganella morganii [18] = assay: In vitro antibacterial activity against M. morganii(GC 2213) without pre-incubation in mouse serum
Pseudomonas aeruginosa [19] = assay: In vitro antibacterial activity against Pseudomonas aeruginosa (ATCC 27853) following pre-incubation in mouse serum
Pseudomonas aeruginosa [20] = assay: In vitro antibacterial activity against Pseudomonas aeruginosa (ATCC 27853) without pre-incubation in mouse serum
Pseudomonas aeruginosa [21] = assay: In vitro antibacterial activity against P. aeruginosa(GC 1544 oprd) without pre-incubation in mouse serum
Staphylococcus aureus [22] = assay: In vitro antibacterial activity against S aureus(ATCC 29213) following preincubation in mouse serum
Staphylococcus aureus [23] = assay: In vitro antibacterial activity against S. aureus(ATCC 29213) without pre-incubation in mouse serum
Staphylococcus aureus [24] = assay: In vitro antibacterial activity against S. aureus(GC 2220 MRSA) without pre-incubation in mouse serum
[25] = tested on: Stenotrophomonas maltophilia; assay: In vitro antibacterial activity against X. maltophilia(GC 562) without pre-incubation in mouse serum
Staphylococcus aureus [26] = assay: In vitro antibacterial activity against S. aureus(GC 2220 MRSA) following pre-incubation in mouse serum
Pseudomonas aeruginosa [27] = assay: In vitro antibacterial activity against P. aeruginosa(GC 1544 oprd) following pre-incubation in mouse serum
[28] = tested on: Stenotrophomonas maltophilia; assay: In vitro antibacterial activity against X. maltophilia(GC 562) following pre-incubation in mouse serum
[29] = tested on: Acinetobacter calcoaceticus; assay: In vitro antibacterial activity against Acinetobacter calcoaceticus (GC 756) without preincubation in mouse serum
Enterococcus faecium [30] = assay: In vitro for antibacterial activity against E. faecium(GC 1182) following pre-incubation in mouse serum

SMILES: C[C@@H](O)[C@H]1C(=O)N2C(C(=O)O)=C(SCCNC=N)C[C@H]12 [IMIPENEM ANHYDROUS]
- ED50 (Mus musculus [1]): 79 mg/kg
- ED50 (Mus musculus [2]): 0.7 mg/kg

SMILES: CCOC(=O)OCOC(=O)C1=C(S[C@@H]2CCO[C@@H]2CNC(=O)OCOC(=O)c2ccccc2)[C@H](C)C2[C@@H]([C@@H](C)O)C(=O)N12 (stereo not given in full)
- ED50 (Mus musculus [1]): 0.76 mg/kg
- ED50 (Mus musculus [2]): 0.54 mg/kg

SMILES: C[C@H]1C(SC2COC(CN)C2)=C(C(=O)O)N2C(=O)[C@H]([C@@H](C)O)C12 (stereo not given in full)
- ED50 (Mus musculus [1]): 3.5 mg/kg
- ED50 (Mus musculus [2]): 0.28 mg/kg

SMILES: CC(C)C(=O)OCOC(=O)NC[C@H]1OCC[C@H]1SC1=C(C(=O)OCOC(=O)C(C)(C)C)N2C(=O)[C@H]([C@@H](C)O)C2[C@H]1C (stereo not given in full)
- ED50 (Mus musculus [1]): 1.6 mg/kg
- ED50 (Mus musculus [2]): 1.9 mg/kg

SMILES: CC(=O)OC(C)OC(=O)NC[C@H]1OCC[C@H]1SC1=C(C(=O)O)N2C(=O)[C@H]([C@@H](C)O)C2[C@H]1C.CCN(C(C)C)C(C)C (stereo not given in full)
- ED50 (Mus musculus [1]): 4.5 mg/kg
- ED50 (Mus musculus [2]): 0.62 mg/kg

SMILES: CCOC(=O)OCOC(=O)NCC1OCCC1SC1=C(C(=O)OCOC(=O)C(C)C)N2C(=O)[C@H]([C@@H](C)O)C2[C@H]1C (stereo not given in full)
- ED50 (Mus musculus [1]): 0.87 mg/kg
- ED50 (Mus musculus [2]): 0.37 mg/kg

SMILES: CCN(C(C)C)C(C)C.C[C@H]1C(S[C@@H]2CCO[C@@H]2CNC(=O)OCOC(=O)C(C)(C)C)=C(C(=O)O)N2C(=O)[C@H]([C@@H](C)O)C12 (stereo not given in full)
- ED50 (Mus musculus [1]): 2.9 mg/kg
- ED50 (Mus musculus [2]): 0.65 mg/kg

SMILES: CCOC(=O)OC(C)OC(=O)C1=C(S[C@@H]2CCO[C@@H]2CN)[C@H](C)C2[C@@H]([C@@H](C)O)C(=O)N12.Cl (stereo not given in full)
- ED50 (Mus musculus [1]): 25 mg/kg
- ED50 (Mus musculus [2]): 1.8 mg/kg

SMILES: CC(OC(=O)OC1=CCCCC1)OC(=O)C1=C(S[C@@H]2CCO[C@@H]2CN)[C@H](C)C2[C@@H]([C@@H](C)O)C(=O)N12.Cl (stereo not given in full)
- ED50 (Mus musculus [1]): > 3.2 mg/kg
- ED50 (Mus musculus [2]): 1.6 mg/kg

- MIC [3]: 4 µg/mL
- MIC (Citrobacter freundii [4]): 0.25 µg/mL
- MIC (Citrobacter freundii [5]): 4 µg/mL
- MIC (Enterococcus faecalis [6]): 4 µg/mL
- MIC (Enterococcus faecalis [7]): 1 µg/mL
- MIC (Enterobacter cloacae [8]): < 0.06 µg/mL
- MIC (Enterobacter cloacae [9]): 2 µg/mL
- MIC (Enterococcus faecium [10]): > 128 µg/mL
- MIC (Escherichia coli [11]): < 0.06 µg/mL
- MIC (Escherichia coli [12]): 0.12 µg/mL
- MIC (Escherichia coli [13]): < 0.06 µg/mL
- MIC (Escherichia coli [14]): 0.25 µg/mL
- MIC (Escherichia coli [15]): < 0.06 µg/mL
- MIC (Escherichia coli [16]): 0.12 µg/mL
- MIC (Morganella morganii [17]): 1 µg/mL
- MIC (Morganella morganii [18]): 2 µg/mL
- MIC (Pseudomonas aeruginosa [19]): 16 µg/mL
- MIC (Pseudomonas aeruginosa [20]): 64 µg/mL
- MIC (Pseudomonas aeruginosa [21]): > 128 µg/mL
- MIC (Staphylococcus aureus [22]): < 0.06 µg/mL
- MIC (Staphylococcus aureus [23]): 0.5 µg/mL
- MIC (Staphylococcus aureus [24]): 32 µg/mL
- MIC [25]: > 128 µg/mL
- MIC (Staphylococcus aureus [26]): 8 µg/mL
- MIC (Pseudomonas aeruginosa [27]): 32 µg/mL
- MIC [28]: > 128 µg/mL
- MIC [29]: 32 µg/mL
- MIC (Enterococcus faecium [30]): 64 µg/mL
SMILES: CC(=O)OC(C)OC(=O)NC[C@H]1OCC[C@H]1SC1=C(C(=O)[O-])N2C(=O)[C@H]([C@@H](C)O)C2[C@H]1C.[Na+] (stereo not given in full)
- ED50 (Mus musculus [1]): 4.9 mg/kg
- ED50 (Mus musculus [2]): 0.65 mg/kg

SMILES: CC(C)OC(=O)OC(C)OC(=O)C1=C(S[C@@H]2CCO[C@@H]2CNC(=O)OCOC(=O)C(C)C)[C@H](C)C2[C@@H]([C@@H](C)O)C(=O)N12 (stereo not given in full)
- ED50 (Mus musculus [1]): 1.4 mg/kg
- ED50 (Mus musculus [2]): 2.1 mg/kg
